Where two headings read alike, the source gives them in different places. Blank lines part the entries; values can stand above or below the molecule they belong to.
Assays:
in vivo = assay: in vivo
Method: The LC-MS analysis was conducted using a Waters Acquity UPLC I-Class system (Waters, USA) coupled with a Xevo TQ-XS mass spectrometer equipped with a heated electrospray ionization source. Chromatographic separation was carried out on an Acquity UPLC HSS T3 C18 column (2.1 mm × 50 mm, 1.8 μm) from Waters, USA, with a flow rate of 0.4 mL/min and a column oven temperature of 40°C. The mobile phase consisted of 0.1% aqueous formic acid (A) and acetonitrile (B). The gradient elution program was as follows: 0–2.0 min, 10%–60% B; 2.0–2.2 min, 60%–95% B; 2.2–3.2 min, 95% B; 3.2–3.5 min, 95%–10% B; and 3.5–5.5 min, 10% B. Mass spectrometric detection was conducted using both positive and negative ionization modes. The source parameters used were as follows: a spray voltage of 1.00 KV, capillary temperature set at 500°C, desolvation flow maintained at 1000 L/h, cone gas (nitrogen) flow at 150 L/h, and a cone voltage of 5 V. The collision energy and precursor to production transition m/z for each analyte are found in Table 1. The data acquisition was performed in multiple reaction monitoring (MRM) mode.
Subsequently, a volume of 400 μL of acetonitrile was added to a 100 μL plasma sample. The resulting mixture was subjected to vortexing for 1 minute and centrifuged at a force of 21367 g for 10 minutes at a temperature of 4°C. The resulting supernatant was subjected to evaporation, followed by reconstitution in a volume of 100 μL of 10% acetonitrile. This reconstituted solution was then centrifuged at a force of 21367 g, and subsequently, a volume of 4 μL of the resulting supernatant was used for UPLC-ESI-MS/MS analysis.
The study used six Bama miniature pigs (70 days old, weighing 20 ± 2 kg) obtained from the Experimental Animal Center, Shandong Lvdu Bio-Sciences and Technology Co., Ltd. (Binzhou, China). The pigs were housed under controlled conditions with a temperature of 25 ± 1°C, relative humidity of 65% ± 10%, and a 12/12 h light/dark cycle. The pigs were provided with standard pig feed and water ad libitum, in accordance with the guidelines outlined in the National Institutes of Health Guide for Care and Use of Laboratory Animals. […] Blood samples (0.5 mL each) were collected from the jugular vein of each pig into heparinized tubes at specific time intervals (0.5 h, 1.0 h, 4.0 h, 8.0 h, 12.0 h, 15.0 h, and 24.0 h) following intragastric administration. The blood sample was promptly subjected to centrifugation at a force of 3400 × g for 10 minutes. The resulting supernatant plasma was collected and preserved at a temperature of −80°C until subsequent preparation for LC-MS analysis. The concentration-time data of the analytes were evaluated using either noncompartmental or compartmental methods with the aid of the PKSolver 2.0 software package, and subsequently, pharmacokinetic parameters were computed. The outcomes are presented as the arithmetic mean accompanied by the standard deviation (SD).

[1] = set-up: method as in PMID 28871816; conditions: rats, cited from earlier work
[2] = set-up: method as in PMID 10891884; conditions: beagle dogs, oral 300 mg of palmatine; cited from earlier work
[3] = set-up: method as in PMID 33217008; conditions: rats, oral 10 mg/kg obacunone; cited from earlier work
[4] = set-up: method as in PMID 34331552; conditions: rats, fruit of Tetradium ruticarpum and licorice extracts together; cited from earlier work
[5] = Bama miniature, pig, in vivo, po
[6] = Bama miniature, pig, in vivo, po, C max
[7] = pig plasma, oral BTWD 1.0 mL/kg
[8] = pig plasma, single oral BTWD 1.0 mL/kg, n = 6, mean ± SD
[9] = Bama miniature, pig, plasma, po, 1 mL/kg
[10] = Bama miniature, pig, plasma, po, 1 mL/kg, C max, pig plasma, single oral BTWD 1.0 mL/kg, n = 6, mean ± SD
[11] = Bama miniature, pig, in vivo, po, 1 mL/kg

Compound: c1c2c(cc3c1OCO3)-c1cc3ccc4c(c3c[n+]1CC2)OCO4 [Coptisine chloride, coptisine chloride]
AUC(0-inf) (in vivo; [5]): 69.8 ± 1.42 ng·h/mL | AUC(0-t) (in vivo; [5]): 59.88 ± 0.15 ng·h/mL | MRT (in vivo; [5]): 14.3 ± 0.31 h | Tmax (in vivo; [5]): 12 h | half-life (in vivo; [5]): 5.7 ± 0.33 h | plasma concentrations (in vivo; [5]): below 10.0 ng/mL | Cmax (in vivo; [6]): 5.9 ± 0.15 ng/mL | CL/F (in vivo; pig, in vivo, po): 6.56 ± 0.14 mL/h | Cmax (in words) (in vivo; pig, in vivo, po): low Cmax | concentration-time profile (shape) (in vivo; pig, in vivo, po): biphasic patterns

Compound: COc1ccc2cc3[n+](cc2c1OC)CCc1cc2c(cc1-3)OCO2 [Berberine, berberine]
AUC(0-inf) (in vivo; [5]): 209 ± 13.6 ng·h/mL | AUC(0-t) (in vivo; [5]): 202 ± 12.7 ng·h/mL | MRT (in vivo; [5]): 11.07 ± 0.03 h | Tmax (in vivo; [5]): 12 h | half-life (in vivo; [5]): 3.14 ± 0.13 h | Cmax (in vivo; [6]): 28.4 ± 0.83 ng/mL | Cmax (in words) (in vivo; pig plasma, oral BTWD): low Cmax | concentration-time profile (shape) (in vivo; [7]): biphasic patterns | CL/F (in vivo; [8]): 14.82 ± 0.93 mL/h

Compound: O=c1ccc2cc(O)c(O)cc2o1 [Esculetin, esculetin]
AUC(0-inf) (in vivo; [9]): 994 ± 27.8 ng·h/mL | AUC(0-t) (in vivo; [9]): 980 ± 26.4 ng·h/mL | MRT (in vivo; [9]): 8.97 ± 0.08 h | Tmax (in vivo; [9]): 4 h | half-life (in vivo; [9]): 2.91 ± 0.08 h | Cmax (in vivo; [10]): 78.1 ± 1.68 ng/mL | concentration-time profile (shape) (in vivo; [7]): biphasic patterns | C max (in vivo; [8]): 78.17 ± 1.68 ng/mL | CL/F (in vivo; [8]): 0.76 ± 0.02 mL/h

Compound: O=c1ccc2cc(O[C@@H]3O[C@H](CO)[C@@H](O)[C@H](O)[C@H]3O)c(O)cc2o1 [Esculin, esculin]
AUC(0-inf) (in vivo; [11]): 876 ± 124 ng·h/mL | AUC(0-t) (in vivo; [11]): 531 ± 52.8 ng·h/mL | Cmax (in vivo; [11]): 66.4 ± 1.91 ng/mL | MRT (in vivo; [11]): 25.1 ± 1.91 h | Tmax (in vivo; [11]): 1 h | half-life (in vivo; [11]): 16.6 ± 1.48 h | concentration-time profile (shape) (in vivo; [7]): biphasic patterns | CL/F (in vivo; [8]): 3.25 ± 0.43 mL/h

Compound: C=C(C)[C@@H]1CC[C@]2(C(=O)O[C@@H]3O[C@H](CO[C@@H]4O[C@H](CO)[C@@H](O[C@@H]5O[C@@H](C)[C@H](O)[C@@H](O)[C@H]5O)[C@H](O)[C@H]4O)[C@@H](O)[C@H](O)[C@H]3O)CC[C@]3(C)[C@H](CC[C@@H]4[C@@]5(C)CC[C@H](O[C@@H]6OC[C@H](O)[C@H](O)[C@H]6O[C@@H]6O[C@@H](C)[C@H](O)[C@@H](O)[C@H]6O)[C@@](C)(CO)[C@@H]5CC[C@]43C)[C@@H]12 [Pulchinenoside B4, pulchinenoside B4]
absorption and elimination (in words) (in vivo; pig plasma, oral BTWD): rapidly absorbed and eliminated from the plasma | concentration-time profile (shape) (in vivo; [7]): biphasic patterns | AUC0− inf (in vivo; [8]): 2580.65 ± 89.09 ng·h/mL | AUC0−t (in vivo; [8]): 2525.63 ± 87.16 ng·h/mL | C max (in vivo; [8]): 276.70 ± 10.54 ng/mL | CL/F (in vivo; [8]): 1.36 ± 0.05 mL/h | MRT (in vivo; [8]): 9.57 ± 0.14 h | T max (in vivo; [8]): 1.00 h | t 1/2 (in vivo; [8]): 3.27 ± 0.17 h

Compound: COc1cc2c(cc1O)-c1cc3ccc(OC)c(OC)c3c[n+]1CC2 [Columbamine, columbamine]
AUC(0-inf) (in vivo; [9]): 31 ± 1.36 ng·h/mL | AUC(0-t) (in vivo; [9]): 28.4 ± 1.31 ng·h/mL | MRT (in vivo; [9]): 12.5 ± 2.8 h | Tmax (in vivo; [9]): 12 h | half-life (in vivo; [9]): 6.74 ± 5.08 h | Cmax (in vivo; [10]): 3.8 ± 0.08 ng/mL | Cmax (in words) (in vivo; pig plasma, oral BTWD): low Cmax | concentration-time profile (shape) (in vivo; [7]): biphasic patterns | plasma concentrations (in vivo; pig plasma, oral BTWD 1.0 mL/kg, upper bound stated in text): below 10.0 ng/mL | CL/F (in vivo; [8]): 17.54 ± 0.76 mL/h

Continued, in another order:

AUC(0-inf) (in vivo; [5]): 53.5 ± 2.78 ng·h/mL | AUC(0-t) (in vivo; [5]): 53.2 ± 2.7 ng·h/mL | MRT (in vivo; [5]): 1.07 ± 0.04 h | Tmax (in vivo; [5]): 0.53 ± 0.02 h | half-life (in vivo; [5]): 0.36 ± 0.01 h | Cmax (in vivo; [6]): 36.8 ± 0.48 ng/mL | CL/F (in vivo; [8]): 36.38 ± 1.84 mL/h
Compound: COc1cc2ccc(=O)oc2c(O[C@@H]2O[C@H](CO)[C@@H](O)[C@H](O)[C@H]2O)c1O [Fraxin, fraxin]
absorption and elimination (in words) (in vivo; pig plasma, oral BTWD): rapidly absorbed and eliminated from the plasma

concentration at 12 h (in vivo; [5]): 5.79 ng/mL
Compound: COc1cc2c(cc1OC)-c1cc3ccc(OC)c(OC)c3c[n+]1CC2 [palmatine]
Cmax ([1]; oral Coptis root granules): 2.14 ± 0.68 ng/mL | Tmax ([1]; oral Coptis root granules): 0.36 ± 0.074 h | Cmax ([1]; oral Shuanghua Baihe tablets): 2.50 ± 0.43 ng/mL | Tmax ([1]; oral Shuanghua Baihe tablets): 3.22 ± 0.81 h | plasma concentration (in words) (in vivo; pig, in vivo, po): below the threshold required for the analysis of PK behavior | Cmax [2]: 8 ng/mL | Tmax [2]: 5 h

AUC0− inf (in vivo; [5]): 1146.51 ± 7.38 ng·h/mL | AUC(0-t) (in vivo; [5]): 111 ± 3.9 ng·h/mL | MRT (in vivo; [5]): 17.4 ± 3 h | Tmax (in vivo; [5]): 3.49 ± 0.07 h | half-life (in vivo; [5]): 0.88 ± 0.15 h | Cmax (in vivo; [6]): 7.39 ± 0.71 ng/mL | CL/F (in vivo; pig, in vivo, po): 0.37 ± 0.02 mL/h | Cmax (in words) (in vivo; pig, in vivo, po): low Cmax
Compound: CC1(C)OC(=O)C=C[C@]2(C)[C@H]3CC[C@@]4(C)[C@H](c5ccoc5)OC(=O)[C@H]5O[C@]54[C@]3(C)C(=O)C[C@@H]12 [Obacunone, obacunone]
MRT [3]: 4.30 ± 0.16 h | Tmax [3]: 1 to 2 h | MRT [4]: 4.90 ± 2.60 h | Tmax [4]: 1.67 ± 0.29 h

AUC(0-inf) (in vivo; [5]): 159 ± 9.33 ng·h/mL | AUC(0-t) (in vivo; [5]): 159 ± 9.33 ng·h/mL | MRT (in vivo; [5]): 0.98 ± 0.01 h | Tmax (in vivo; [5]): 0.49 ± 0.01 h | half-life (in vivo; [5]): 0.33 h | Cmax (in vivo; [6]): 119 ± 6.14 ng/mL | concentration-time profile (shape) (in vivo; [7]): biphasic patterns | CL/F (in vivo; [8]): 9.72 ± 0.56 mL/h
Compound: COc1cc2ccc(=O)oc2c(O)c1O [Fraxetin, fraxetin]
absorption and elimination (in words) (in vivo; pig plasma, oral BTWD): rapidly absorbed and eliminated from the plasma

AUC0− inf (in vivo; pig, in vivo, po): 73.39 ± 2.80 ng·h/mL | AUC0−t (in vivo; pig, in vivo, po): 69.72 ± 2.62 ng·h/mL | C max (in vivo; pig, in vivo, po): 8.18 ± 0.21 ng/mL | CL/F (in vivo; pig, in vivo, po): 12.41 ± 0.47 mL/h | Cmax (in words) (in vivo; pig, in vivo, po): low Cmax | MRT (in vivo; pig, in vivo, po): 11.39 ± 0.14 h | T max (in vivo; pig, in vivo, po): 12.00 h | concentration-time profile (shape) (in vivo; pig, in vivo, po): biphasic patterns | plasma concentrations (in vivo; pig, in vivo, po): below 10.0 ng/mL | t 1/2 (in vivo; pig, in vivo, po): 3.81 ± 0.10 h
Compound: COc1cc2c(cc1O)C[C@H]1c3cc(O)c(OC)cc3CC[N@@+]1(C)C2 [Phellodendrine, phellodendrine]

Reference: paper PMC11101253, “Pharmacokinetic Properties of Baitouweng Decoction in Bama Miniature Pigs: Implications for Clinical Application in Humans” (International Journal of Analytical Chemistry, 2024)
